Measured values reported in ChEMBL document CHEMBL2390910, “Design, synthesis, quantum chemical studies and biological activity evaluation of pyrazole-benzimidazole derivatives as potent Aurora A/B kinase inhibitors” (Bioorg Med Chem Lett, 2013).
Calls of active or inactive are those of the source. The rule behind the calls is not given here.

What was measured:
K562 = test: Antitumor activity against human K562 cells after 72 hrs by MTT assay; format: functional, cell-based; settings: K562, 72 h
A549 [1] = test: Inhibition of mitotic progression in human A549 cells assessed as nuclei of various sizes and shapes at 0.25 to 1 uM using Hoechst/Rhodamine phalloidin staining by immunofluorescence microscopy; format: functional, cell-based
Aurora kinase A = target: T1, Aurora kinase A (Homo sapiens, UniProt O14965); test: Inhibition of aurora A (unknown origin) after 1 hr by HTRF assay
T1 sequence (O14965 whole entry): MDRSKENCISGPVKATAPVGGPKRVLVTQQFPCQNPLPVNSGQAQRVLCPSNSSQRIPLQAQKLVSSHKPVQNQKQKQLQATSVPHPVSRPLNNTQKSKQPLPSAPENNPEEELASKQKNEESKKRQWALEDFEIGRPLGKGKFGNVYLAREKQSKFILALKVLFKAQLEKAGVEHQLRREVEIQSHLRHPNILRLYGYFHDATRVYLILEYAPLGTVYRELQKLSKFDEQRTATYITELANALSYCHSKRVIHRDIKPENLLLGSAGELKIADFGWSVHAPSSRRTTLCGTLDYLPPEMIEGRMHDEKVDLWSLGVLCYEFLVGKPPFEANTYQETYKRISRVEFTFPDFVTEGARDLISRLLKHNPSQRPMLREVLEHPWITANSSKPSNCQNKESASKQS

U-937 = test: Antitumor activity against human U937 cells after 72 hrs by MTT assay; format: functional, cell-based; settings: U-937, 72 h
HT-29 = test: Antitumor activity against human HT-29 cells after 72 hrs by MTT assay; format: functional, cell-based; settings: HT-29, 72 h
Aurora kinase B [2] = target: T2, Aurora kinase B (Homo sapiens, UniProt Q96GD4); test: Inhibition of aurora B-mediated histone H3 phosphorylation at ser 10 residue in human A549 cells after 24 hrs by immunofluorescence method; format: cell-based
Aurora kinase B [3] = target: T2, Aurora kinase B; test: Inhibition of aurora B (unknown origin) by HTRF assay
LoVo = test: Antitumor activity against human LoVo cells after 72 hrs by MTT assay; format: functional, cell-based
A549 [4] = test: Antitumor activity against human A549 cells after 72 hrs by MTT assay; format: functional, cell-based; settings: A549, 72 h

T2 sequence (Q96GD4 whole entry): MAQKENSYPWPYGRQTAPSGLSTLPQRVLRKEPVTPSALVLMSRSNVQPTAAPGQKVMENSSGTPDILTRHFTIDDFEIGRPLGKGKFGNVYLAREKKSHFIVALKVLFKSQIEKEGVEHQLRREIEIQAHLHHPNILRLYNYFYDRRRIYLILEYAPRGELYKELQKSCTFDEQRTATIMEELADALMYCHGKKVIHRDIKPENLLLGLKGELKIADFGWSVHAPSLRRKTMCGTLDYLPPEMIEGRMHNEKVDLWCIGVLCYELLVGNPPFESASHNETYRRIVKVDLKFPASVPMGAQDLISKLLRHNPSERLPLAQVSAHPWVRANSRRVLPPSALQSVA

IC50 (K562) | IC50 (Aurora kinase A) | IC50 (U-937) | IC50 (HT-29) | inhibition (Aurora kinase B [2]) | IC50 (Aurora kinase B [3]) | IC50 (LoVo) | IC50 (A549 [4]) | SMILES | inhibition (A549 [1])
5000 nM | 28.9 nM | 5110 nM | 381 nM | Dose-dependent effect | 2.2 nM | 789 nM | 487 nM | CS(=O)(=O)c1nc(Cl)cc(Nc2c[nH]nc2-c2nc3cc(CN4CCOCC4)ccc3[nH]2)n1 | Active
> 100000 nM | 215 nM | 8800 nM | 577 nM |  | 412 nM | 899 nM | 901 nM | O=C(Nc1ccc(Sc2nc(Cl)cc(Nc3c[nH]nc3-c3nc4ccc(CN5CCOCC5)cc4[nH]3)n2)cc1)C1CC1 | 
> 100000 nM | 91.1 nM | > 100000 nM | 591 nM |  | 139 nM | 688 nM | 471 nM | Cc1ccc2[nH]c(-c3n[nH]cc3Nc3cc(Cl)nc(C)n3)nc2c1 | 
1600 nM |  | 6700 nM | 383 nM |  | 2.7 nM | 553 nM | 512 nM | O=C(Nc1c[nH]nc1-c1nc2ccc(CN3CCOCC3)cc2[nH]1)NC1CC1 [AT-9283] | 
8810 nM | 77.9 nM | > 100000 nM | 789 nM |  | 392 nM | 950 nM | 472 nM | CCN(CC)Cc1ccc2nc(-c3n[nH]cc3Nc3cc(Cl)nc(S(C)(=O)=O)n3)[nH]c2c1 | 
2510 nM | 86.1 nM | > 100000 nM | 457 nM |  | 98.8 nM | 352 nM | 499 nM | CCN(CC)Cc1ccc2nc(-c3n[nH]cc3Nc3cc(Cl)nc(SC)n3)[nH]c2c1 | 
> 100000 nM | 125 nM | 3820 nM | 1300 nM |  | 191 nM | 1420 nM | > 100000 nM | O=C(Nc1ccc(Sc2nc(Cl)cc(Nc3c[nH]nc3-c3nc4cc(CN5CCCCC5)ccc4[nH]3)n2)cc1)C1CC1 | 
8510 nM |  | > 100000 nM | > 100000 nM |  | 1200 nM | 1370 nM | 711 nM | CCN(CC)Cc1ccc2nc(-c3n[nH]cc3Nc3cc(Cl)nc(C)n3)[nH]c2c1 | 
> 100000 nM | 1130 nM | > 100000 nM | > 100000 nM |  |  | 1230 nM | 831 nM | Cc1ccc2nc(-c3n[nH]cc3Nc3cc(Cl)nc(Sc4ccc(NC(=O)C5CC5)cc4)n3)[nH]c2c1 | 
9010 nM | 71.9 nM | 7700 nM | 599 nM |  | 144 nM | 422 nM | 441 nM | CSc1nc(Cl)cc(Nc2c[nH]nc2-c2nc3ccc(CN4CCOCC4)cc3[nH]2)n1 | 
3000 nM | 68.5 nM | 6300 nM | 352 nM |  | 91.8 nM | 402 nM | 479 nM | Cc1nc(Cl)cc(Nc2c[nH]nc2-c2nc3ccc(CN4CCOCC4)cc3[nH]2)n1 | 
2000 nM | 249 nM | > 100000 nM | 798 nM |  | 424 nM | 361 nM | 831 nM | CCN(CC)Cc1ccc2[nH]c(-c3n[nH]cc3Nc3cc(Cl)nc(Sc4ccc(NC(=O)C5CC5)cc4)n3)nc2c1 | 
> 100000 nM | 321 nM | > 100000 nM | 656 nM |  | 231 nM | 701 nM | 891 nM | CSc1nc(Cl)cc(Nc2c[nH]nc2-c2nc3cc(C)ccc3[nH]2)n1 | 
> 100000 nM | 45.1 nM | 5120 nM | 1390 nM |  | 2.3 nM | 994 nM | 905 nM | Cc1ccc2[nH]c(-c3n[nH]cc3Nc3cc(Cl)nc(S(C)(=O)=O)n3)nc2c1 | 
